US9890117B2, “Benzamide compounds and related methods of use” (Northwestern University, priority 2012, dated 2018)
≈ marks a conversion by molar mass, not a printed value.

Assays:
SIRT1 = target: T1, SIRT1 (Homo sapiens, UniProt Q96EB6); assay: Fluor-de-Lys biochemical sirtuin deacetylation assay, SIRT1 counter-screen; settings: for SIRT1 inhibition: 10 μM counter-screen
T1 sequence (Q96EB6 1-747): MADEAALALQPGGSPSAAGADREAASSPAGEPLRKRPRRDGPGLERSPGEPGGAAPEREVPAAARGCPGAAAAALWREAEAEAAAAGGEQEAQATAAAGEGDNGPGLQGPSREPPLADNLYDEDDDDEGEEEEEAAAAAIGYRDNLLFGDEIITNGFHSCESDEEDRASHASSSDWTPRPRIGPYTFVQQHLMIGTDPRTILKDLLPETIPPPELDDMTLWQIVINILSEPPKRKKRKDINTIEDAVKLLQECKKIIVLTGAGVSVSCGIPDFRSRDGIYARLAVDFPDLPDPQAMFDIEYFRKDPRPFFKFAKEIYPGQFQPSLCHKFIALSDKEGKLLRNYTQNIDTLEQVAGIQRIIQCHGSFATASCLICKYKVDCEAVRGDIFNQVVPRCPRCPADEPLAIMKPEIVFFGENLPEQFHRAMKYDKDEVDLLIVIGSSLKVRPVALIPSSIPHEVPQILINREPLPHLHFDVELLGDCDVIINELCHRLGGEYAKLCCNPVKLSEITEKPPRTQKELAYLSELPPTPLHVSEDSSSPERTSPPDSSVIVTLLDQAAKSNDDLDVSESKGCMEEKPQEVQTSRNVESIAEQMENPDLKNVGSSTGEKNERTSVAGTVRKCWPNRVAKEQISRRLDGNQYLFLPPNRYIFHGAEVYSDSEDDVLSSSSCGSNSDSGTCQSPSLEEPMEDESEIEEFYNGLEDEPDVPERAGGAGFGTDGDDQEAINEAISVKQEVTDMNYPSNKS
Protocol: (§1) To evaluate the potency and selectivity of the synthesized compounds robust, sensitive, and quantitative, biochemical sirtuin deacetylation assays were employed. (SIRT2 then SIRT1 and SIRT3 for selectivity). Sirtuin activity was assessed using the Fluor-de-Lys assay with recombinant active enzymes SIRT1, SIRT2, and the catalytically active fragment of SIRT3, as described in the literature. […] AK-1 was included as the reference compound with each assay. […] Those compounds also were subjected to SIRT1 and SIRT3 assays to determine sirtuin selectivity.
(§2) As discussed above, Tables 1-10 are presented and followed by details relating to the synthesis and characterization of compounds prepared. Inhibition assays and related testing of such compounds are conducted according to well-known literature protocols including those found in Silverman, et al., Biorg. Med. Chem. Lett. 22 (2012) 2789-2793 and the references cited therein, such references and tests incorporated herein by reference.

[1] = target: T2, catalytically active fragment of SIRT3 (Homo sapiens, UniProt Q9NTG7); assay: Fluor-de-Lys biochemical sirtuin deacetylation assay, SIRT3 counter-screen; settings: 10 μM counter-screen
T2 construct: the catalytically active fragment of SIRT3
T2 sequence (Q9NTG7 118-380 limits assumed): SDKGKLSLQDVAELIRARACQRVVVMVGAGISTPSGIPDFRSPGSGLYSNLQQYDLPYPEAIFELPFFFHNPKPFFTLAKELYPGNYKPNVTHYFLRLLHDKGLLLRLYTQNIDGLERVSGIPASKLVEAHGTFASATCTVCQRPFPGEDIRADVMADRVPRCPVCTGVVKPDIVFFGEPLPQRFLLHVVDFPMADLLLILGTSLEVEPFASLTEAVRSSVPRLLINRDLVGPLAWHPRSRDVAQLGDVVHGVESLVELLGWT
Protocol: as §1, §2

SIRT2 = target: T3, SIRT2 (Homo sapiens, UniProt Q8IXJ6); assay: Fluor-de-Lys biochemical sirtuin deacetylation assay, SIRT2; settings: for inhibition at 10 µM: sulfone, sulfoxide, thioether derivatives of C2-8 scaffold; for SIRT2 inhibition potency compared with AK-1: dose-response, five doses, side-by-side with AK-1
T3 construct: recombinant active enzymes SIRT1, SIRT2, and the catalytically active fragment of SIRT3
T3 sequence (Q8IXJ6 1-389): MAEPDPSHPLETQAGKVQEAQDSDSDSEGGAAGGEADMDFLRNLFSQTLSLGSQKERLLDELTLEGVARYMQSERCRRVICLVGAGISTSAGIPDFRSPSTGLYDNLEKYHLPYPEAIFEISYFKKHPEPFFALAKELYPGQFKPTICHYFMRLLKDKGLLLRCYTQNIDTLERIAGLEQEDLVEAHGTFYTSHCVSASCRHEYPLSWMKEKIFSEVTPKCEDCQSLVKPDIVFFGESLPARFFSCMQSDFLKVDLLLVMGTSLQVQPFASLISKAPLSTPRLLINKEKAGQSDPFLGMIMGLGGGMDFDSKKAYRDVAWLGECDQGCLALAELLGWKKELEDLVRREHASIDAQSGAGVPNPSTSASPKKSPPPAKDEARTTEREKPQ

PBS Express solubility = settings: aqueous buffer, kinetic from dmso stock
[2] = Microsomal stability screen, human; settings: 1 μM
[3] = Microsomal stability screen, mouse; settings: 1 μM
[4] = tested on: α-tubulin K40 acetylation (SIRT2 substrate) in N2a cells; assay: α-tubulin K40 acetylation (Western) in neuronal N2a cells; format: cell-based; settings: N2a cells, 10, 25, 50 μM, 6 h
Protocol: FIGS. 2A-B. Cell-based assay for evaluating the bioactivity of SIRT2 inhibitors. A) Extracts from neuronal N2a cells treated with 61 and 64 for 6 h were resolved on SDS-PAGE and analyzed by Western analysis using antibodies specific to acetylated α-tubulin, and normalized to GADPH and total α-tubulin (not shown) levels.
(§3) To assess SIRT2 inhibition activity in cells, an increase in α-tubulin K40 acetylation (α-tubulin is a substrate for SIRT2) in neuronal N2a and in wild type and HD ST141 cell lines was measured. In this bioactivity test, extracts from compound-treated cells were resolved on SDS-PAGE and subjected to Western analysis using primary antibodies specific to K40 acetylated α-tubulin. Trichostatin A (TSA), a potent HDAC inhibitor, was used as a positive control. To normalize the levels of acetylated α-tubulin we used total α-tubulin and GADPH proteins, detected by Western reactive antibodies specific to total α-tubulin and GADPH. […] FIGS. 2A-B show the bioactivity of 61 and 64 in N2a cells at three tested concentrations (10, 25, and 50 μM). Toxicity of the compounds was monitored in both cell lines, and most of them were non-toxic up to 50 μM in a 6 h treatment.

[5] = tested on: α-tubulin K40 acetylation (SIRT2 substrate) in wild type and HD ST141 cell lines; assay: α-tubulin K40 acetylation (Western) in wild type and HD ST141 cell lines; format: cell-based
Protocol: as §3

[6] = cited from earlier work
N2a cells = assay: Toxicity monitoring in N2a cells; format: cell-based
Protocol: as §3

WT st14a cells = assay: Toxicity monitoring in WT st14a cells; format: cell-based; settings: up to 18 h treatment
polyQ aggregation = settings: cell-based model; read-out: suppression of aggregation, EC50; cited from earlier work
[7] = tested on: huntingtin (htt) aggregation; settings: R6/2 mice; cited from earlier work
htt aggregation = settings: 140 CAG knock-in model of HD; cited from earlier work
[8] = in vivo; cited from earlier work
[9] = Microsomal intrinsic clearance, human; settings: for microsomal CLint at 1 μM / half-life at 1 μM: human, microsomes
[10] = Microsomal intrinsic clearance, mouse; settings: for microsomal CLint at 1 μM / half-life at 1 μM: mouse, microsomes

Question: Which results are given for `O=C(Nc1nccs1)c1cccc(S(=O)(=O)Nc2ccc(Cl)cc2)c1` [Compound 31, 3-(N-(4-chlorophenyl)sulfamoyl)-N-(thiazol-2-yl)benzamide]?
Answer: inhibition at 10 µM (SIRT1; 10 μM): 65%; SIRT3 inhibition [1]: totally inactive

Question: Which inhibition at 10 µM (SIRT2) does the source give for `N#Cc1ccc(NC(=O)c2cccc(S(=O)(=O)Cc3ccc(Cl)cc3)c2)cc1` [Compound 174, 3-((4-Chlorobenzyl)sulfonyl)-N-(4-cyanophenyl)benzamide] here?
Answer: Its inhibition at 10 µM is 40%.

Question: And the “potency compared with 59” value (SIRT2; SIRT2 assay (61 also cell-based tubulin deacetylation assay))?
Answer: Its value is “more potent than 59”.

Question: And the “SIRT2 inhibition potency compared with AK-1” value (SIRT2)?
Answer: The value was “equal or just slightly better potency”.

Question: What about the solubility at 45 min (PBS Express solubility) of the same molecule?
Answer: The solubility at 45 min was 62.5 µM (≈ 25.7 µg/mL).

Question: And the solubility at 16 h (PBS Express solubility)?
Answer: Its solubility at 16 h is 62.5 µM (≈ 25.7 µg/mL).

Question: And the “Mean remaining parent NADPH-free (%)” value [2]?
Answer: The value was 93%.

Question: And the “Mean remaining parent with NADPH (%)” value [2]?
Answer: Its value is 89%.

Question: What about the “Mean remaining parent NADPH-free (%)” value [3] of the same molecule?
Answer: Its value is 100%.

Question: What about the “Mean remaining parent with NADPH (%)” value [3] of the same molecule?
Answer: Its value is 68%.

Question: For `CN(c1ccc(S(C)(=O)=O)cc1)S(=O)(=O)c1cccc(C(=O)Nc2ccc(C#N)cc2)c1` [Compound 115, N-(4-Cyanophenyl)-3-(N-methyl-N-(4-(methylsulfonyl)phenyl)sulfamoyl)benzamide], which “SIRT2 inhibition potency compared with AK-1” value (SIRT2) is on record?
Answer: The value was “significantly more potent”.

Question: And the “SIRT1 inhibition” value (SIRT1)?
Answer: Its value is “minimal SIRT1 inhibition”.

Question: And the “increase in α-tubulin K40 acetylation” value [4]?
Answer: Its value is “did not show any significant increase”.

Question: And the “increase in α-tubulin K40 acetylation” value [5]?
Answer: The value was “did not show any significant increase”.

Question: With `O=C(Nc1cccc(Br)c1)c1cccc(S(=O)(=O)N2CCCCCC2)c1` [AK-7] as the molecule, how does the aqueous solubility [6] read?
Answer: The aqueous solubility was “low aqueous solubility”.

Question: For `COc1ccc(N(C)S(=O)(=O)c2cccc(C(=O)Nc3ccc(C#N)cc3)c2)cc1` [Compound 90, N-(4-Cyanophenyl)-3-(N-(4-methoxyphenyl)-N-methylsulfamoyl)benzamide], which toxicity (N2a cells; 25 μM) is on record?
Answer: The toxicity was “partially toxic”.

Question: And the toxicity (N2a cells; 50 μM)?
Answer: The toxicity was “toxic”.

Question: What about the toxicity (WT st14a cells) of the same molecule?
Answer: Its toxicity is “no toxicity was observed”.

Question: What about the “Mean remaining parent NADPH-free (%)” value [2] of the same molecule?
Answer: Its value is 106%.

Question: What about the “Mean remaining parent with NADPH (%)” value [2] of the same molecule?
Answer: The value was 2%.

Question: And the “Mean remaining parent NADPH-free (%)” value [3]?
Answer: The value was 90%.

Question: What about the “Mean remaining parent with NADPH (%)” value [3] of the same molecule?
Answer: The value was 2%.

Question: With `O=C(Nc1ccc(Br)cc1)c1cccc(S(=O)(=O)Nc2ccc(Br)cc2)c1` [Compound C2-8] as the molecule, how does the EC50 (polyQ aggregation) read?
Answer: Its EC50 is 50 nM.

Question: And the “inhibition of huntingtin (htt) aggregation in the striatum” value [7]?
Answer: Its value is 25-30%.

Question: What about the “reduction of htt aggregation” value (htt aggregation) of the same molecule?
Answer: The value was 50%.

Question: What about the “toxicity in acute and chronic tolerability studies” value [8] of the same molecule?
Answer: Its value is “not toxic”.

Question: What about the aqueous solubility [6] of the same molecule?
Answer: The aqueous solubility was “low aqueous solubility”.

Question: For `CN(c1ccc(Cl)cc1)S(=O)(=O)c1cccc(C(=O)Nc2ccc(S(C)(=O)=O)cc2)c1` [Compound 61, 3-(N-(4-Chlorophenyl)-N-methylsulfamoyl)-N-(4-(methylsulfonyl)phenyl)benzamide], which “increase in α-tubulin K40 acetylation” value [4] is on record?
Answer: Its value is “dose-dependent increase”.

Question: What about the “Mean remaining parent NADPH-free (%)” value [2] of the same molecule?
Answer: The value was 112%.

Question: What about the “Mean remaining parent with NADPH (%)” value [2] of the same molecule?
Answer: The value was 2%.

Question: And the “Mean remaining parent NADPH-free (%)” value [3]?
Answer: Its value is 100%.

Question: And the “Mean remaining parent with NADPH (%)” value [3]?
Answer: Its value is 4%.

Question: With `O=C(Nc1cccc([N+](=O)[O-])c1)c1cccc(S(=O)(=O)N2CCCCCC2)c1` [AK-1] as the molecule, how does the aqueous solubility [6] read?
Answer: The aqueous solubility was “low aqueous solubility”.

Question: Which “increase in α-tubulin K40 acetylation” value [4] does the source give for `CN(c1ccc(Cl)cc1)S(=O)(=O)c1cccc(C(=O)Nc2ccc(C#N)cc2)c1` [Compound 64, 3-(N-(4-Chlorophenyl)-N-methylsulfamoyl)-N-(4-cyanophenyl)benzamide] here?
Answer: Its value is “dose-dependent increase”.

Question: Which results are given for `C[S+]([O-])c1ccc(NC(=O)c2cccc(SCc3ccc(Cl)cc3)c2)cc1` (stereo not drawn) [Compound 182, 3-((4-chlorobenzyl)thio)-N-(4-(methylsulfinyl)phenyl)benzamide]?
Answer: inhibition at 10 µM (SIRT2): 60%; Fraction remaining, last time point (%) (Plasma half life; Mouse plasma, 5 μM): 62%; half-life at 5 μM (Plasma half life; mouse, plasma): 89 min; solubility at 45 min (PBS Express solubility): 15.6 µM (≈ 6.49 µg/mL); solubility at 16 h (PBS Express solubility): 15.6 µM (≈ 6.49 µg/mL); % remaining 60 min ([9]; 1 μM, 60 min): 5.3%; microsomal CLint at 1 μM ([9]; NADPH-dependent CLint): 241 µL/min/mg; half-life at 1 μM ([9]; NADPH-dependent T1/2 (min)): 9.6 min; microsomal CLint at 1 μM ([9]; NADPH-free CLint): 39 µL/min/mg; half-life at 1 μM ([9]; NADPH-free T1/2 (min)): 59 min; % remaining 60 min ([10]; 1 μM, 60 min): 0.8%; microsomal CLint at 1 μM ([10]; NADPH-dependent CLint): 445 µL/min/mg; half-life at 1 μM ([10]; NADPH-dependent T1/2 (min)): 5.2 min; microsomal CLint at 1 μM ([10]; NADPH-free CLint): 58 µL/min/mg; half-life at 1 μM ([10]; NADPH-free T1/2 (min)): 40 min

Question: With `CC(=O)c1ccc(N(C)S(=O)(=O)c2cccc(C(=O)Nc3ccc(C#N)cc3)c2)cc1` [Compound 106, 3-(N-(4-Acetylphenyl)-N-methylsulfamoyl)-N-(4-cyanophenyl)benzamide] as the molecule, how does the “SIRT1 inhibition” value (SIRT1) read?
Answer: The value was “minimal SIRT1 inhibition”.

Question: What about the “SIRT3 inhibition” value [1] of the same molecule?
Answer: The value was “minimal SIRT3 inhibition”.

Question: Which “Fraction remaining, last time point (%)” value (Plasma half life; Mouse plasma, 5 μM) does the source give for `CC(C)[N+](C)(CCOC(=O)C1c2ccccc2Oc2ccccc21)C(C)C` [Propantheline, reference compound] here?
Answer: The value was 3.4%.

Question: And the “Plasma T1/2” value (Plasma half life; Mouse plasma, 5 μM)?
Answer: Its value is 18 min.
